According to ChEMBL document CHEMBL2384955, “Structure-activity relationships in aminosterol antibiotics: the effect of stereochemistry at the 7-OH group” (2013):
Active and inactive are the calls of the source. The rule behind the calls is not given here.

What was measured:
Enterococcus faecalis = assay: Antibacterial activity against Enterococcus faecalis ATCC 29212 assessed as growth inhibition assessed as cell viability after 24 hrs by resazurin-based microplate assay; format: functional; settings: ATCC 29212, 24 h
Lipid bilayer [1] = assay: Binding affinity to DOPG large unilamellar vesicle assessed as release of calcein at 1 mg/mL measured for 1 min by spectrophotometric analysis
Pseudomonas aeruginosa = assay: Antibacterial activity against Pseudomonas aeruginosa ATCC 27853 assessed as growth inhibition assessed as cell viability after 24 hrs by resazurin-based microplate assay; format: functional; settings: ATCC 27853, 24 h
Staphylococcus aureus = assay: Antibacterial activity against Staphylococcus aureus ATCC 29213 assessed as cell viability after 24 hrs by resazurin-based microplate assay; format: functional; settings: ATCC 29213, 24 h
Escherichia coli = assay: Antibacterial activity against Escherichia coli ATCC 25922 assessed as growth inhibition assessed as cell viability after 24 hrs by resazurin-based microplate assay; format: functional; settings: ATCC 25922, 24 h
Lipid bilayer [2] = assay: Binding affinity to zwitterionic DOPC large unilamellar vesicle assessed as release of calcein at 1 mg/mL measured for 1 min by spectrophotometric analysis relative to control
Lipid bilayer [3] = assay: Binding affinity to DOPC/DOPG large unilamellar vesicle assessed as release of calcein at 1 mg/mL measured for 1 min by spectrophotometric analysis

CC(C)[C@@H](CC[C@@H](C)[C@H]1CC[C@H]2[C@@H]3[C@H](O)C[C@H]4C[C@@H](NCCCNCCCCN)CC[C@]4(C)[C@H]3CC[C@]12C)OS(=O)(=O)O.CC(O)C(=O)O
MIC (Enterococcus faecalis): 2 µg/mL
Activity (Lipid bilayer [1]): Active
MIC (Pseudomonas aeruginosa): 4 µg/mL
MIC (Staphylococcus aureus): 2 µg/mL
MIC (Escherichia coli): 8 µg/mL
Activity (Lipid bilayer [2]): 50%
Activity (Lipid bilayer [3]): Active

CC(C)[C@@H](CC[C@@H](C)[C@H]1CC[C@H]2[C@@H]3[C@@H](O)C[C@H]4C[C@@H](NCCCNCCCCN)CC[C@]4(C)[C@H]3CC[C@]12C)OS(=O)(=O)O.O=C(O)C(F)(F)F
MIC (Enterococcus faecalis): 12 µg/mL
Activity (Lipid bilayer [1]): inactive
MIC (Pseudomonas aeruginosa): 24 µg/mL
MIC (Staphylococcus aureus): 12 µg/mL
MIC (Escherichia coli): 12 µg/mL
Activity (Lipid bilayer [2]): inactive
Activity (Lipid bilayer [3]): inactive

CC(C)[C@@H](CC[C@@H](C)[C@H]1CC[C@H]2[C@@H]3[C@@H](O)C[C@H]4C[C@@H](NCCCNCCCCNCCCN)CC[C@]4(C)[C@H]3CC[C@]12C)OS(=O)(=O)O.O=C(O)C(F)(F)F
MIC (Enterococcus faecalis): 16 µg/mL
Activity (Lipid bilayer [1]): Active
MIC (Pseudomonas aeruginosa): 32 µg/mL
MIC (Staphylococcus aureus): 8 µg/mL
MIC (Escherichia coli): 1 µg/mL
Activity (Lipid bilayer [2]): 50%
Activity (Lipid bilayer [3]): inactive

CC(C)[C@@H](CC[C@@H](C)[C@H]1CC[C@H]2[C@@H]3[C@H](O)C[C@H]4C[C@@H](NCCCNCCCCNCCCN)CC[C@]4(C)[C@H]3CC[C@]12C)OS(=O)(=O)O.Cl
MIC (Enterococcus faecalis): 32 µg/mL
Activity (Lipid bilayer [1]): Active
MIC (Pseudomonas aeruginosa): 8 µg/mL
MIC (Staphylococcus aureus): 4 µg/mL
MIC (Escherichia coli): 2 µg/mL
Activity (Lipid bilayer [2]): 50%
Activity (Lipid bilayer [3]): Active
